{"source": "patent US20240016850A1", "about": "“CELL-NANOPARTICLE DRUG DELIVERY SYSTEM AND USE OF THE SAME FOR INHIBITING GROWTH OF TUMOR CELLS AND DIAGNOSING TUMOR CELLS” (priority 2022, published 2024)", "key": {"[1]": {"experiment": "Gd3+ release from gadodiamide and Gd-FPFNP (dialysis, Xylenol orange)", "type": "physicochemical", "details": "24th hour; 1.05 mM gadodiamide; PBS, 37° C.", "procedure": "In order to monitor the in vitro release of gadolinium(III) ions (Gd^3+) from gadodiamide and Gd-FPFNP, a respective one of gadodiamide at concentration of 1.05 mM and Gd-FPFNP that was loaded with 1.05 mM of gadodiamide were incubated in DMEM, and then added into a dialysis tube with cellulose membrane having a molecular weight cutoff of 1 kDa, followed by immersing the dialysis tube in 10 mL of PBS and stirring at 37° C. Thereafter, 0.5 mL aliquots of the PBS were taken out at the 3rd hour and 24th hour of stirring, followed by addition of Xylenol orange agent and analysis using a UV-Vis detector conducted according to procedures described by Barge A. et al., in an article entitled “How to determine free Gd and free ligand in solution of Gd chelates. A technical note.” published in Contrast Media Mol. Imaging, 2006, Vol. 1, p. 184-188, so as to determine the amount of Gd^3+ released in vitro."}, "[2]": {"experiment": "Biodistribution in vital organs with different treatment regimens (ICP-MS)", "type": "in vivo, rat", "details": "24th hour post-administration", "from_the_text": "In order to determine the differences in biodistribution of the cell-nanoparticle drug delivery system with those of gadodiamide and Gd-FPFNP in vital organs, the orthotopic GBM-bearing rats prepared in section B above were divided into 4 groups, namely, comparative groups 1 and 2 (CG1 and CG2), and experimental groups 1 and 2 (EG1 and EG2), with n=4 per each group. […] At the 24th hour post-administration, the orthotopic GBM-bearing rats in each group were sacrificed, and the blood and tissues from the heart, liver, spleen, lung, kidney, intestine, left brain and right brain were subjected to the pre-processing steps as described in section E above, and then subjected to quantification of elemental gadolinium (Gd) content by ICP-MS system as described in Item 5 of section B in Example 1. The results were expressed as percentage of administered (injected) dose per gram tissue (ID/g), calculated using the aforesaid formula (3), and shown in FIG. 16."}}}
{"smiles": "CNC(=O)CN(CCN(CCN(CC(=O)[O-])CC(=O)NC)CC(=O)[O-])CC(=O)[O-].[Gd+3]", "note": "[gadodiamide, Gadodiamide]", "values": [{"measurement": "concentration of Gd3+ released", "setting": "[1]", "result": 38.6, "unit": "µM"}, {"measurement": "elemental gadolinium in vital organs", "setting": "[2]", "result": "not or hardly detected"}]}
